Like-named read-outs stand apart in the source and are kept apart here.
Legend:
[1] = molecular target: T1, GHSR1a receptor (Homo sapiens, UniProt Q92847); test: 125I-Ghrelin binding assay; details: displacement of 125I-ghrelin (0.053 nM), membranes of HEK293 cells transfected with GHSR1a; Cheng-Prussoff; '—' not defined; read-out: Binding pKi (converted)
T1 construct: expressed in transfected cells; host or cells: HEK293 (membranes)
Method: Plasmid DNA containing the GHSR1a receptor (12.5 ug/dish) in 0.675 ml DMEM was transfected into the cells by mixing with 180 ul PolyFect, 15 min later mixing in 2.25 ml 10% CS/DMEM, and transferring the mixture into the dish. At 16-18 h post transfection, medium was replaced with 25 ml fresh 10% FCS/1% PSG/DMEM to each dish for another 18-20 h. At approximately 48 hours post-transfection, cells were harvested in ice-cold membrane buffer (20 mM HEPES, 6 mM MgCl2, 1 mM EDTA, pH to 7.2) using a cell scraper, and pelleted by centrifugation.
Pelleted cells were added to a nitrogen cavitation chamber and 900 bar of pressure applied for 30 min. The pressure was slowly released the cavitated cells collected in 50 ml falcon tubes. The tubes were centrifuged at 1000 rpm, 4° C. for 10 min, and the supernatant collected. This centrifugation and collection was repeated two more times until the supernatant was free of precipitate (membranes are still in suspension). The supernatant was poured into a 50 ml centrifuge tube and centrifuged at 10.000 rpm, 4° C. for 20 min. The supernatant was discarded and the pellet re-suspended in 750 μl membrane binding buffer using a chilled 1 ml syringe with 25G5/8 needle to re-suspend membranes. The protein concentration was determined using the BioRad Protein Assay Dye Reagent according to the manufacturers instructions. The protein concentration was adjusted to 5 mg/ml and aliquots snap-frozed and stored at −80 C until use.
Membranes were thawed rapidly; diluted with binding buffer (25 mM Hepes+5 mM MgCl2, 1 mM CaCl2, 2.5 mM EDTA and 0.2% BSA) to a protein concentration of 0.8 ug/30 ul and placed on ice. 96-well plates (U-bottom wells) were prepared with serial dilutions (8 doses, 40 ul/w) of the test compounds. Membranes (30 uL/well) were then added, and incubated with test ligands for 30 min at room temperature with shaking. […] Binding was terminated by filtration through GF/B filters (presoaked with 0.1% polyethylenimine) with a Brandel 96-well harvester. The filters were washed with ice-cold binding buffer (150 ml/plate) and allowed to air-dry for 30 min. 50 ul MicroScient-20 cocktail was added to each dried well, the plates were sealed, and counted for 2 min/well using a TopCount scintillation counter (Packard).

[2] = molecular target: Ghrelin receptor (Homo sapiens, UniProt Q92847); test: Receptor Selection and Amplification Technology (R-SAT) assay; format: cell-based; design: expressed in transfected cells; host or cells: NIH3T3; details: for IC50: '—' not defined (nd used separately), read-out: RSAT pIC50 (converted); for Emax: read-out: RSAT Eff(%)
[3] = negative logarithm of ligand concentration causing 50% inhibition of constitutive receptor response, transfected NIH3T3 cells
[4] = percent inhibition at saturating ligand, normalized to reference ligand Substance P analog = 100%

T1 sequence (Q92847 whole entry): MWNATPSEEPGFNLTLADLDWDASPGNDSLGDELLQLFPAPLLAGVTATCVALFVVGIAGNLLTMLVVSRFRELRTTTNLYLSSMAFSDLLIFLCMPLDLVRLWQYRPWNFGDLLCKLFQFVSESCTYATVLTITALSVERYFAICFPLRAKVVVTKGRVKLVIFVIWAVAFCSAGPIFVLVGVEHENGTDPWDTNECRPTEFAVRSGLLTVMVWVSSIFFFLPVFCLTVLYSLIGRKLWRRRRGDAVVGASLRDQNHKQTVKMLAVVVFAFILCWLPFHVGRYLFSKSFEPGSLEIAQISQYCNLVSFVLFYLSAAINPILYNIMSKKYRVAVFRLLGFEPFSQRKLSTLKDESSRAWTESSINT
Chain of Ghrelin receptor (Q92847 whole entry): as above

| Structure (SMILES) | Ki [1] [µM] | IC50 ([2]; […]) [µM] | Emax [2] [%] | IC50 [2, 3] [µM] | Emax [2, 4] [%] | RSAT Eff(%) [2, 4] [%] |
| --- | --- | --- | --- | --- | --- | --- |
| COc1cccc2c(C(=O)c3ccccc3)cn(CCCN3CCCN(Cc4ccccc4Cl)CC3)c12 | 0.00398 | 0.000398 | 98 |  |  |  |
| COc1cccc2c(C(=O)Cc3ccccc3)cn(CCCN3CCCN(Cc4ccc(F)cc4)CC3)c12 | 0.00794 | 0.000398 | 87 |  |  |  |
| COc1cccc2c(C(=O)Cc3ccccc3)cn(CCCN3CCCN(Cc4ccccc4Cl)CC3)c12 | 0.00631 | 0.000501 | 92 |  |  |  |
| CC(=O)c1cn(CCCN2C3CCC2CC(CC(=O)c2ccccc2)C3)c2c(C)cccc12 (stereo not drawn) | 0.2 |  |  | 0.000794 | 91 |  |
| COc1cccc2c(C(=O)c3ccccc3)cn(CCCN3C4CCC3CC(CC(=O)c3ccccc3)C4)c12 (stereo not drawn) | 0.1 | 0.00501 | 101 |  |  |  |
| CC(=O)c1cn(CCCN2CCCN(Cc3ccccc3Cl)CC2)c2c(C#N)cccc12 | 0.0631 |  |  | 0.00631 | 98 |  |
| COc1cccc2c(C(=O)c3ccccc3)cn(CCCN3CCC(Oc4ccccc4Cl)CC3)c12 | 0.158 | 0.00631 | 79 |  |  |  |
| COc1cccc2c(C(=O)NCC(C)C)cn(CCCN3C4CCC3CC(Oc3ccc(Cl)cc3)C4)c12 (stereo not drawn) | 0.1 |  |  | 0.00631 |  | 107 |
| COc1cccc2c(C(=O)c3ccccc3)cn(CCCN3CCC(Oc4ccc(Cl)cc4)CC3)c12 | 0.1 | 0.00631 | 93 |  |  |  |
| COc1cccc2c(C(C)=O)cn(CCCN3CCN(c4ncccc4C(F)(F)F)CC3)c12 | 1 |  |  | 0.00631 | 108 |  |
| COc1cccc2c(C(=O)c3ccccc3)cn(CCCN3CCN(Oc4cccc(Cl)c4)CC3)c12 | 0.00794 | 0.00631 | 79 |  |  |  |
| COc1cccc2c(C(C)=O)cn(CCCN3CCN(c4c(C)cccc4C)CC3)c12 | 1 |  |  | 0.00631 | 107 |  |
| COc1cccc2c(C(=O)c3ccccc3)cn(CCCN3C4CCC3CC(Oc3ccc(Cl)cc3)C4)c12 (stereo not drawn) | 0.1 | 0.00794 | 91 |  |  |  |
| CC(=O)c1cn(CCCN2CCC(Oc3cccc(Cl)c3)CC2)c2c(C#N)cccc12 | 0.158 |  |  | 0.00794 | 101 |  |
| CCCCC[C@H]1C[C@H]2CC[C@@H](C1)N2CCCn1cc(C(=O)NCC(C)C)c2cccc(OC)c21 | 0.0794 |  | 135 | 0.00794 |  |  |
| CCCCC1CCN(CCCn2cc(C(=O)NCC(C)C)c3cccc(OC)c32)CC1 | 0.2 | 0.00794 | 93 |  |  |  |
| COc1cccc2c(C(C)=O)cn(CCCN3CCN(c4cccc(Cl)c4)CC3)c12 | 0.501 |  |  | 0.00794 | 99 |  |
| CC(=O)c1cn(CCCN2C3CCC2CC(CCc2ccccc2)C3)c2c(C#N)cccc12 (stereo not drawn) | 0.0398 |  | 106 | 0.00794 |  |  |
| CC(=O)c1cn(CCCN2C3CCC2CC(CCc2ccccc2)C3)c2c(Br)cccc12 (stereo not drawn) | 0.0794 |  |  | 0.00794 | 107 |  |
| COc1cccc2c(C(=O)NCc3cccc(Cl)c3)cn(CCCN3CCC(Oc4cccc(Cl)c4)CC3)c12 | 0.0631 |  | 100 | 0.00794 |  |  |
| COc1cccc2c(C(=O)NCC(C)C)cn(CCCN3CCC(Oc4ccccc4Cl)CC3)c12 | 0.0631 |  | 100 | 0.00794 |  |  |
| CC(=O)c1cn(CCCN2CCCN(Cc3ccccc3Cl)CC2)c2c(Cl)cccc12 | 0.0794 |  |  | 0.00794 | 92 |  |
| COc1cccc2c(C(=O)Cc3ccccc3)cn(CCCN3CCN(CCOc4ccc(Cl)cc4)CC3)c12 | 3.16 | 0.00794 | 82 |  |  |  |
| COc1cccc2c(C(C)=O)cn(CCCN3CCN(c4cccc(Cl)c4Cl)CC3)c12 | 0.398 |  |  | 0.00794 | 103 |  |
| CCCCC1CCN(CCCn2cc(C(C)=O)c3cccc(C)c32)CC1 | 0.316 |  |  | 0.00794 | 78 |  |
| COc1cccc2c(C(=O)NCC(C)C)cn(CCCN3C4CCC3CC(Oc3ccccc3Cl)C4)c12 (stereo not drawn) | 0.1 |  |  | 0.01 |  | 116 |

| Structure (SMILES) | Ki [1] [µM] | IC50 ([2]; […]) [µM] | Emax [2] [%] | IC50 [2, 3] [µM] | Emax [2, 4] [%] | RSAT Eff(%) [2, 4] [%] |
| --- | --- | --- | --- | --- | --- | --- |
| CC(=O)c1cn(CCCN2CCC(c3nc4ccccc4s3)CC2)c2c(Br)cccc12 | 0.2 |  |  | 0.01 | 81 |  |
| COc1cccc2c(C(C)=O)cn(CC(C)CN3CCCN(Cc4ccccc4Cl)CC3)c12 (stereo not drawn) | 0.1 |  |  | 0.01 | 123 |  |
| COc1cccc2c(C(C)=O)cn(CCCN3C4CC[C@H]3C[C@@H](Oc3ccc(Cl)cc3)C4)c12 | 0.2 | 0.01 | 114 |  |  |  |
| COc1ccccc1C1CCN(CCCn2cc(C(=O)c3ccccc3)c3cccc(OC)c32)CC1 | 0.158 | 0.0126 | 88 |  |  |  |
| COc1cccc2c(C(=O)c3ccccc3)cn(CCCN3C4CCC3CC(Oc3ccc(F)cc3)C4)c12 (stereo not drawn) | 0.158 | 0.0126 | 106 |  |  |  |
| COc1cccc2c(C(C)=O)cn(CCCN3C4CCC3CC(Oc3ccc(Cl)cc3)C4)c12 (stereo not drawn) | 0.501 |  |  | 0.0126 |  | 113 |
| COc1cccc2c(C(C)=O)cn(CCCN3CCN(c4ccc(C#N)cc4)CC3)c12 | 0.631 |  |  | 0.0126 | 90 |  |
| COc1cccc2c(C(=O)Cc3ccccc3)cn(CCCN3C4CCC3CC(CC(=O)c3ccc(Cl)cc3)C4)c12 (stereo not drawn) | 0.0316 | 0.0126 | 167 |  |  |  |
| CC(=O)c1c(C)n(CCCN2C3CCC2CC(CCc2ccc(Cl)cc2)C3)c2c(Br)cccc12 (stereo not drawn) | 0.316 |  |  | 0.0126 | 69 |  |
| CC(=O)c1cn(CCCN2CCC(Oc3ccccc3Cl)CC2)c2c(Br)cccc12 | 0.126 |  |  | 0.0126 | 96 |  |
| COc1cccc2c(C(=O)c3ccccc3)cn(CCCN3CCN(CCOc4ccccc4)CC3)c12 | 0.251 | 0.0126 | 98 |  |  |  |
| COc1cccc2c(C(=O)Cc3ccccc3)cn(CCCN3CCN(CCOc4ccccc4)CC3)c12 | 0.0398 | 0.0126 | 99 |  |  |  |
| COc1cccc2c(C(C)=O)cn(CCCN3CCC(Oc4ccccc4Cl)CC3)c12 | 0.794 |  |  | 0.0158 |  | 98 |
| CC(=O)c1cn(CCCN2CCC(Oc3cccc(Cl)c3)CC2)c2ncccc12 | 0.316 |  |  | 0.0158 | 124 |  |
| CCCCC1CCN(CCCn2cc(C(=O)NCc3cccc(C)c3)c3cccc(OC)c32)CC1 | 0.316 | 0.0158 | 72 |  |  |  |
| COc1cccc2c(C(C)=O)cn(CCCN3CCN(c4ccc(F)cc4)CC3)c12 | 0.501 |  |  | 0.0158 | 95 |  |
| CC(=O)c1cn(CCCN2C3CCC2CC(Oc2ccc(F)cc2)C3)c2ncccc12 (stereo not drawn) | 0.501 |  |  | 0.0158 | 77 |  |
| CCCCC1CCN(CCCn2cc(C(C)=O)c3cccc(Br)c32)CC1 | 0.158 |  |  | 0.02 | 87 |  |
| COc1cccc2c(C(C)=O)cn(CCCN3CCN(Oc4ccccc4Cl)CC3)c12 | 0.316 |  |  | 0.02 | 100 |  |
| CC(=O)c1cn(CCCN2C3CCC2CC(Oc2ccccc2Cl)C3)c2c(C#N)cccc12 (stereo not drawn) | 0.2 |  |  | 0.02 | 83 |  |
| CC(=O)c1cn(CCCN2CCC(Oc3ccccc3Cl)CC2)c2c(C)cccc12 | 0.631 |  |  | 0.02 | 110 |  |
| CC(=O)c1cn(CCCN2CCC(Oc3cccc(Cl)c3)CC2)c2c(Cl)cccc12 | 0.1 |  |  | 0.02 | 83 |  |
| CCCCC1CCN(CCCn2cc(C(C)=O)c3cccc(OC)c32)CC1 | 1.58 |  |  | 0.02 | 116 |  |
| CCc1cccc2c(C(C)=O)cn(CCCN3C4CCC3CC(CCc3ccc(Cl)cc3)C4)c12 (stereo not drawn) | 0.1 |  | 95 | 0.02 |  |  |
| COc1cccc2c(C(=O)c3ccccc3)cn(CCCNCCOc3ccccc3)c12 | 0.158 | 0.02 | 74 |  |  |  |
| CC(=O)c1cn(CCCN2C3CCC2CC(Oc2ccccc2Cl)C3)c2ncccc12 (stereo not drawn) | 0.0316 |  |  | 0.02 | 108 |  |

Source: US20070213359A1 (ACADIA Pharmaceuticals Inc., priority 2005, published 2007)
